Experimental data: US11419843B2, “Small molecule BCL-2 functional converters as cancer therapeutics” (Oregon State University, priority 2016, dated 2022)
“Also recorded” adds a separate entry of the source. Read-outs that look alike come from different tables or passages of the source.

Legend:
[1] = system: normal mammary epithelial cells (MCF-10A and HMECs); assay: Viability of normal mammary epithelial cells; format: cell-based, human
Text: FIG. 9F depicts viability of methotrexate treated breast cancer cell line (ZR-75-1) in comparison to normal mammary epithelial cells (MCF-10A and HMECs).

[2] = system: MDA-MB-231/Vector and MDA-MB-231/Bcl-2 cells; assay: Viability screening assay in MDA-MB-231 cells with high and low Bcl-2 (CellTiter Glo); format: cell-based, human; conditions: for Bcl-2 selective reduction in viability, MDA-MB-231/Bcl-2 vs MDA-MB-231/Vector: 10 μM, 10% serum; for Bcl-2 dependent reduction in viability, MDA-MB-231/Bcl-2 vs Vector: 10% FBS
Description: In one example, a triple negative breast cancer cell line, MDA-MB-231, was used for screening these libraries. […] At the end of the assay, cell viability was determined using the cell titer Glo assay. […] A hit was defined as a compound inducing more than 20% reduction in viability of MDA-MB-231/Bcl-2 cells, compared to vector controls (MDA-MB-231/Vector). In the next step these shortlisted small molecules were tested for their ability to convert the conformation of Bcl-2 into a pro-apoptotic one.
To screen for Bcl-2 selective compounds, MDA-MB-231 cells (MDA-MB-231/Vector and MDA-MB-231/Bcl-2) were plated at 4000 cells per well in a 96 well black opaque plate. The day after plating the cells, treatment from the library plates was done so as to add 1 μL of the compound into the cells, resulting in 10 μM concentration. For non-specific […], 25 nM of staurosporin was used. […] Post treatment viability was assessed by CellTiter Glo Cell Viability assay (Promega Inc., Madison, Wis.) as per manufacturer instructions.
Viability for test compounds in each cell line (MDA-MB-231/Vector and MDA-MB-231/Bcl-2) was normalized to their respective vehicle treatments. Compounds that had at least 20% less viability in the MDA-MB-231/Bcl-2 cell line than the MDA-MB-231/Vector cell line were selected as initial hits and shortlisted for revalidation. Revalidated compounds were reordered for further testing and characterization. All data analyses were performed using Microsoft Excel.

[3] = system: WT MEF, Bax−/− MEF, Bak−/− MEF and Bax−/− Bak−/− MEF cells; assay: Viability of MEF cells with or without Bax or Bak; format: cell-based, mouse; conditions: 24 h, 10% serum; for Bax/Bak dependence of effect on MEF viability: 1 μM, WT, Bak−/− and DKO MEF; for viability at 1 µM: Mus musculus, MEF, normalized to vehicle
Description: WT MEF, BAX^−/− MEF, BAK^−/− MEF and Bax^−/− Bak^−/− MEF cells were treated with MTX at 1 μM concentration for 24 h in 10% serum conditions. Viability was assessed using the Glo assay. MTX treatments were normalized to 100% of Vehicle.
FIG. 17C WT MEF, Bax−/− MEF, Bak−/− MEF and Bax−/− Bak−/− MEF cells were treated with 1 μM BFC1108 for 24 h in 10% FBS medium and viability was assessed using cell titer glo assay.
WT MEF, Bax^−/− MEF, Bak^−/− MEF and Bax^−/− Bak^−/− MEF cells were treated with 1 μM BFC1103 for 24 h in 10% FBS medium and viability was assessed using cell titer glo assay.

H460 cells = assay: JC-1 staining of mitochondrial membrane potential; format: cell-based, human; conditions: 16 h, 10% FBS, 10 μM for MTX and BFC1103
Description: JC-1 was used to stain live cells undergoing treatment with MTX at 10 μM for 16 h and images taken with FITC and Rhodamine filters were overlayed. Cells stained orange have intact mitochondrial outer membrane and the ones turning green have compromised outer membrane indicating loss of membrane potential.
(§1) FIG. 17D JC-1 stain was used to stain live H460 cells that were treated with M BFC1108 for 16 h in 10% FBS containing medium and images taken with FITC and rhodamine filters were overlaid. Cells stained orange have intact mitochondrial outer membrane and the ones turning green have compromised outer membrane indicating loss of membrane potential.
as §1, with “JC-1” for “FIG. 17D JC-1”, “cells” for “cells that were”, “10 μM BFC1103” for “M BFC1108”

[4] = system: MDA-MB-468 cells with or without Bcl-2 expression; assay: Viability of MDA-MB-468 cells with Bcl-2 knockdown; format: cell-based, human; conditions: 10% FBS; for Effect of Bcl-2 knockdown on viability effect in MDA-MB-468 cells: 48 h
Description: For Bcl-2 knockdown experiments, MDA-MB-468 cells were seeded at 4,000 cells per well in a 96 well black plate. The day after seeding, cells were subjected to Bcl-2 knockdown with 25 ng siRNAs (Dharmacon Research, Lafayette, Colo.) or 25 ng control siRNA against luciferase (Dharmacon Research, Lafayette, Colo.) using Dharmafect as transfecting reagent. After 72 h of transfection time, cells were treated with indicated compounds for 48 h and viability was assayed with CellTiter Glo Luminescent Cell Viability Assay (Promega, Madison, Wis.).

[5] = system: MCF-7/Vector and MCF-7/Bcl-2 cells; assay: Viability of MCF-7 cells with high and low Bcl-2; format: cell-based, human; conditions: 10% FBS
Description: MDA-MB-231 and MCF-7 breast cancer cell lines stably overexpressing Bcl-2 were generated via electroporation and subsequent clonal expansion in G418-containing media. MDA-MB-231 cell clones with sufficiently high expression of Bcl-2 (MDA-MB-231/Bcl-2) determined by western blotting was selected for screening along with their vector controls (MDA-MB-231/Vector). Similarly MCF-7 cells clones were selected for characterization of lead molecules.
Cell viability was determined using CellTiter Glo Luminescent Cell Viability Assay (Promega, Madison, Wis.) as per manufacturer instructions. DAPI stain was used to assess apoptosis. Colony forming assays were performed as described previously.

Bcl-2 loop domain = Bcl-2 loop domain (Homo sapiens, UniProt P10415); assay: Limited proteolysis of GST tagged Bcl-2 loop domain with trypsin; format: biochemical; conditions: for Proteolysis of Bcl-2 loop domain: 50 μM, trypsin 1, 2, 4 and 8 min
Description: FIG. 11B depicts proteolysis of Bcl-2 loop domain in the presence of methotrexate. GST tagged BCl-2 loop domain was incubated with 1 μM methotrexate at the indicated times to determine if methotrexate interaction with loop domain has an effect on the proteolysis pattern upon co incubation with trypsin.
Purified GST tagged Bcl-2 loop domain was incubated with 50 μM BFC1108 at the indicated times to determine if BFC1108 interaction with loop domain has an effect on the proteolysis pattern upon co-incubation with trypsin.
FIG. 22B depicts limited proteolysis of Bcl-2 loop domain in the presence of BFC1103.
(§2) GST-Bcl-2 and GST only fragments (60 μg) were incubated with 0.1% DMSO or BFC1103 (50 μM) for 1 h and proteolyzed by 3 μg/ml of trypsin for 1, 2, 4 and 8 min. Reactions were quenched by the addition of laemmli buffer. The resulting protease cleavage fragments were resolved on a 12% SDS-PAGE gel and visualized by coomassie blue staining.
as §2, with “GST-Bcl-2 loop71” for “GST-Bcl-2”, “Laemmli” for “laemmli”, “Coomassie” for “coomassie”

Chain of Bcl-2 loop domain (P10415 29-90 limits assumed): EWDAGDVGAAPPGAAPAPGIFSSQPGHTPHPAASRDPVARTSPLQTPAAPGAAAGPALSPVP

| Structure (SMILES) | Viability of normal mammary epithelial cells MCF-10A ([1]; 24 h, 10% FBS) | Bcl-2 selective reduction in viability, MDA-MB-231/Bcl-2 vs MDA-MB-231/Vector ([2]; 24 h) | Viability of MDA-MB-231 with increased Bcl-2 vs control cells under hypoxic conditions ([2]; hypoxic conditions) | Bax/Bak dependence of effect on MEF viability [3] | Mitochondrial membrane potential (JC-1 dye) (H460 cells) | Effect of Bcl-2 knockdown on viability effect in MDA-MB-468 cells [4] | Bcl-2 dependent effect on viability, MCF-7/Bcl-2 vs MCF-7/Vector ([5]; 10 μM, 24 h) | Proteolysis of Bcl-2 loop domain (Bcl-2 loop domain) | Viability of normal mammary epithelial cells MCF-10A ([1]; 48 h, 10% serum) | Bcl-2 dependent reduction in viability, MDA-MB-231/Bcl-2 vs Vector ([2]; 48 h) | Bcl-2 dependent effect on viability, MCF-7/Bcl-2 vs MCF-7/Vector ([5]; 48 h) | Viability of normal breast epithelial cells MCF-10A and HMEC ([1]; similar concentrations of MTX as in cancer cells) | Bcl-2 dependent reduction in viability, MDA-MB-231/Bcl-2 vs Vector ([2]; various concentrations, 24 h) | viability at 1 µM ([3]; read-out: Viability, Bak−/− MEF) [%] | viability at 1 µM ([3]; read-out: Viability, Bax−/− MEF) [%] | viability at 1 µM ([3]; read-out: Viable cells, wild type MEF) [%] | Effect of Bcl-2 knockdown on effect in MDA-MB-468 cells ([4]; various concentrations, 24 h) | Proteolysis pattern of Bcl-2 loop domain (Bcl-2 loop domain; 1 μM methotrexate, trypsin) |
| --- | --- | --- | --- | --- | --- | --- | --- | --- | --- | --- | --- | --- | --- | --- | --- | --- | --- | --- |
| CCCCc1ccc(NC(=O)CN(Cc2ccccc2)S(C)(=O)=O)cc1 [BFC1103, N-2-benzyl-N-1-(4-butylphenyl)-N-2-(methylsulfo-nyl) glycinamide] | minimal effect on normal mammary epithelial cells (MCF-10A) | Bcl-2 dependent reduction in viability of MDA-MB-231 cells; also recorded: Bcl-2 selective induction of cell death | significant reduction in viability of MDA-MB-231 with increased Bcl-2 expression compared to the control cells | wild type MEF cells, MEF cells without Bax or Bak expression had significant reduction in their viability compared to the double knockout (DKO) MEFs | decrease in their mitochondrial outer membrane potential | Suppression of Bcl-2 expression reduced the effect of BFC1103 | reduced the viability of MCF-7 cells with high Bcl-2 levels, compared to Bcl-2 low expressing control cells | delayed the proteolysis of the loop domain of Bcl-2 | – | – | – | – | – | – | – | – | – | – |
| CCOc1ccccc1NC(=O)c1cc(Cl)ccc1NC(=O)c1ccc(OC)cc1 [BFC1108, 5-chloro-N-(2-ethoxyphenyl)-2-[(4-methoxybenzoyl)amino]-benzamide] | – | better Bcl-2 selective induction of cell death | – | no effect on viability in DKO MEFs, whereas Bax^−/− MEF and Bak^−/− MEF have diminished viability | decreased mitochondrial membrane potential | When Bcl-2 was knocked down, the cells were rescued from the effects of BFC1108 | – | increased proteolysis of Bcl-2 loop domain was noticeable by 4 min time point | No effect on the viability of MCF-10A cells | dose dependent reduction in viability of Bcl-2-high expressing cells (MDA-MB-231/Bcl-2), compared to their vector controls | MCF-7 cells with high-Bcl-2 expression are more sensitive to BFC1108 | – | – | – | – | – | – | – |
| CN(Cc1cnc2nc(N)nc(N)c2n1)c1ccc(C(=O)N[C@@H](CCC(=O)O)C(=O)O)cc1 [MTX, (2S)-2-[[4-[(2,4 diaminopteridin-6-yl)methylmethylamino]benzoyl]amino] pentanedioc acid] | – | selectively induce more cell death in high-Bcl-2 expressing MDA-MB-231 cells | – | viability of Bax^−/− Bak^−/− MEF (DKO) cells was not effected | decrease in their mitochondrial membrane potential | – | Bcl-2 dependent effect of MTX was consistent in estrogen receptor (ER) positive MCF-7 cells over-expressing Bcl-2 | – | – | – | – | relatively unaffected | reduced viability in MDA-MB-231/Bcl-2 cells significantly in comparison to the MDA-MB-231/Vector control cells | ~40 | ~40 | ~30 | Knockdown of Bcl-2 in MDA-MB-468 cells diminished the apoptotic effect of MTX | differential proteolysis pattern |
